Data: US20070116713A1, “Compositions and methods for reducing or controlling blood cholesterol, lipoproteins, triglycerides and atherosclerosis” (priority 2005, published 2007)

Test: Case study: subjects taking capsules of the exemplary composition with exercise and low-fat diet; total cholesterol, triglycerides, LDL, HDL tracked
Type: in vivo, humans
Details: in two of the subjects; removed from the formulation
From the text: An initial study included 34 subjects. The subjects were advised to exercise and follow a strict low-fat diet, in addition to consuming doses of the exemplary composition. The subjects were tracked from 8 to 24 months.
It is contemplated within the scope of the invention to provide alternate formulations which eliminate nicotinic acid for use by those persons who cannot tolerate it.

Structure (SMILES): O=C(O)c1cccnc1 [nicotinic acid]
- tolerability of nicotinic acid in the formulation: not tolerated
